Measured values: patent US20090036496A1, “Treatment of Stress Urinary Incontinence and Mixed Urinary Incontinence” (UROGENE, priority 2005, published 2009)

How the values were obtained:
[1] = system: alpha1-adrenergic receptors; assay: Contraction of isolated rabbit urethra rings by activation of alpha1-adrenergic receptors; settings: for contraction of the urethra induced by the compound itself: cumulative concentrations 0.01 to 100 μM, relative to norepinephrine 30 μM
Experimental: The compounds were tested in ex vivo experiments carried out on rabbit urethra.
The tests were carried out on isolates of rabbit urethra which were obtained as follows.
The whole urethra was excised and washed in order to remove the adipose and connective tissues, and then cut into rings approximately 4 mm in diameter, one at the median level, the other at the distal level of the urethra.
In this trial, the ability of each of the four compounds mentioned above to induce, by themselves, a contraction of the urethra by activation of the alpha1-adrenergic receptors, compared with norepinephrine used as a positive control, is measured.
The protocol followed is an adaptation of the protocol described by Van der Graaf et al. (Eur. J. Pharmacol., 327: 25-32, 1997).
Krebs-Henseleit solution was modified by adding propanolol (1 μM), normetanephrin (1 μM), desipramine (0.1 μM) and deoxycorticosterone (3 μM) in order to block the beta-adrenergic receptors, catechol-O-methyltransferase and the uptake of noradrenalin type 1 (neuronal) and 2 (extraneuronal), respectively.
An initial force of 1 g is applied to the samples. After a period of 60 minutes of equilibration, the rings are brought into contact with norepinephrine (30 μM), twice consecutively, separated by washing for 60 minutes. The rings that have a contractile response of less than 1 g are discarded and new rings are optionally prepared. After washing for 30 minutes, the compound tested is added at cumulative concentrations ranging from 0.01 to 100 μM. In parallel, the solvent of the compound (distilled water or DMSO) is tested thereon so as to obtain a control curve.
In the case of HP748, an additional experiment was carried out in which prazosin (1 μM), an alpha1-adrenergic receptor antagonist, was incubated for 30 minutes before the addition of HP748.
The results are expressed as percentage of the contraction induced by the second addition of norepinephrine at 30 μM as a function of the concentration of the compound. The latter is represented on a logarithmic scale, by the logarithm of the value in mol/l.

[2] = system: female New Zealand white rabbits; assay: Continuous cystometry under irritated bladder conditions (0.5% acetic acid infusion); assay type: in vivo, rabbit; settings: for bladder capacity: p<0.01
Experimental: (§1) The effects of cumulative doses of HP749 (0, 1, 3 and 5 mg/kg i.v.), or duloxetine (0, 1 and 2 mg/kg i.v.) on the electromyographic and cystometric parameters were evaluated in anaesthetized female New Zealand white rabbits (n=12/group) under irritated conditions (continuous transvesical infusion of 0.5% acetic acid). The study was performed in accordance with the ethical standards of the Helsinki declaration.
Continuous cystometry was performed with the animal supine using a subcutaneous cystostomy. A T tube was connected to the multiperforable plug using a 20-gauge needle, online with a TRA021 pressure transducer and a micro-injection pump. Room-temperature diluted acetic acid was infused into the bladder at a rate of 1.4 ml/hr to elicit repetitive voidings, which allowed collection of data for a large number of voiding cycles. Continuous cystometry was recorded on a PowerLab 4/25.
(§2) At the beginning of the cystometry the bladder was emptied. The liquid infusion to stabilize the cyclic voidings was maintained at least for 60 minutes, continuously recording the cystometrogram. Then, placebo was intravenously administered, and the cystometrogram was recorded for other 40 minutes. Consecutive doses of duloxetine or HP749 were then administered with an interval of 40 minutes.
(§3) An intravenous cannula was connected to the ear vein for vehicle (saline) or drug administration. The drugs were freshly prepared before each experiment in saline. Drugs were administered intravenously in a volume of 1 ml. followed by 1 ml. flush of physiological saline.
(§4) All values were expressed as the mean±SEM. Duloxetine or HP749 effects were analyzed and compared with control (saline) values using Wilcoxon rank test. Mann-Whitney U test was performed to compare the effects of duloxetine and HP-749. Statistical significance was considered at p<0.05.

[3] = system: female New Zealand white rabbits; assay: Electromyography of striated sphincter (SS-EMG) under irritated bladder conditions; assay type: in vivo, rabbit
Experimental: as §1, §2
Two electrodes (30-gauge needle) were placed percutaneously into the striated anal sphincter approximately 5-10 mm. lateral to the anus. […] SS-EMG was continuously recorded during the cystometry.
as §3, §4

Structure (SMILES): c1ccc2c(c1)ccn2Nc1ccncc1 [HP748, N-(4-pyridinyl)-1H-indol-1-amine]
- contraction of the urethra induced by the compound itself [1]: induces a significant contraction
- contraction of the urethra after preincubation with prazosin ([1]; preincubation with 1 μM of prazosin for 30 minutes): completely blocked

Structure (SMILES): CNCC[C@H](Oc1cccc2ccccc12)c1cccs1 [duloxetine, reference compound]
- bladder capacity ([2]; duloxetine 1 and 2 mg/kg i.v. cumulative): increased dose-dependently
- SS-EMG activity ([3]; 2 mg./kg i.v., p<0.01): significantly increased

Structure (SMILES): Cc1cn(Nc2ccncc2F)c2ccccc12 [HP183, reference compound]
- contraction of the urethra induced by the compound itself [1]: no effect

Structure (SMILES): CCCN(c1ccncc1)n1ccc2ccccc21 [HP749, N-propyl-N-(4-pyridinyl)-1H-indol-1-amine]
- bladder capacity ([2]; 1 mg/kg i.v.): 172 % of the control
- bladder capacity ([2]; 5 mg/kg i.v.): 235 % of the control
- effect on bladder capacity compared with duloxetine ([2]; Mann-Whitney U test, p<0.05): significantly higher than those of duloxetine
- effect on SS-EMG compared with duloxetine ([3]; Mann-Whitney U test, p<0.05): significantly higher than those of duloxetine
- SS-EMG increase ([3]; all doses tested (1, 3 and 5 mg/kg i.v.), p<0.01): 2.5 fold
- contraction of the urethra induced by the compound itself [1]: no effect

Structure (SMILES): CCCN(c1ccncc1F)n1cc(C)c2ccccc21 [HP184, reference compound]
- contraction of the urethra induced by the compound itself [1]: no effect
